Assay results published in publication PMC2788672 (Journal of medicinal chemistry, 2009).
Converted amounts (≈) assume the structure as drawn. “Also recorded” adds a separate entry of the source. Read-outs that look alike come from different tables or passages of the source.

How the values were obtained:
P. carinii [1] = assay: In vitro anti-P. carinii ATP detection assay; assay type: cell-based, Pneumocystis carinii; conditions: for IC50: Pneumocystis carinii
[2] = test system: chloroquine-resistant P. falciparum strain W2; conditions: cited from earlier work; for IC50: read-out: Activity against blood stage forms IC50, ref [28]
P. carinii [3] = conditions: 72 h, ref [28], cited from earlier work; for IC50: read-out: Anti-P. carinii activity IC50
[4] = test system: sporogonic development of Plasmodium berghei ANKA in Anopheles stephensi; assay: In vivo transmission-blocking activity; conditions: single i.p. dose to mice
[5] = test system: A549 human adenocarcinoma epithelial lung cells; assay: Cytotoxicity, viability of A549 cells; assay type: cell-based
[6] = test system: chloroquine-resistant P. falciparum strain W2; assay: In vitro blood-schizontocidal activity assay; assay type: cell-based, Plasmodium falciparum; conditions: P. falciparum W2, 48 h incubation
[7] = 24 h, read-out: Anti-P. carinii activity IC50, 24 h
[8] = 48 h, read-out: Anti-P. carinii activity IC50, 48 h
[9] = 72 h, read-out: Anti-P. carinii activity IC50, 72 h

Row | Compound | IC50 (P. carinii [1]; [7]) [µg/mL] | IC50 (P. carinii [1]; [8]) [µg/mL] | IC50 (P. carinii [1]; [9]) [µg/mL] | Mean no. of oocysts per mosquito±SEM ([4]; dose 10 µmol/kg) | Mean no. of oocysts per mosquito±SEM ([4]; dose 50 µmol/kg) | other results
1 | COc1cc(NC(C)CCCN2C(=O)CN(C(=O)[C@H](N)CC(C)C)C2(C)C)c2ncccc2c1 (stereo partly shown) [Compound 5d] | 14.6 (≈ 31.1 µM) | 8.4 (≈ 17.9 µM) | 5.1 (≈ 10.9 µM) |  |  | 
2 | COc1cc(NC(C)CCCN2C(=O)CNC2(C)C)c2ncccc2c1 (stereo not shown) [Compound 4a] |  |  |  |  |  | IC50 [2]: 9.1 µM; Anti-P. carinii activity IC50 (P. carinii [3]): 8.3 µg/mL; IC50 (P. carinii [3]): 23 µM
3 | COc1cc(NC(C)CCCN2C(=O)[C@@H](C)NC2(C)C)c2ncccc2c1 (stereo partly shown) [Compound 4b] |  |  |  |  |  | IC50 [2]: > 50 µM; Activity against blood stage forms IC50 ([2]; ref [28]): complete loss of activity; Anti-P. carinii activity IC50 (P. carinii [3]): 83.7 µg/mL; IC50 (P. carinii [3]): 226 µM
4 | CC[C@H](C)[C@@H](N)C(=O)N1CC(=O)N(CCCC(C)Nc2cc(OC)cc3cccnc23)C1(C)C (stereo partly shown) [Compound 5e, 1-isoleucyl-3-(4-(6-methoxyquinolin-8-ylamino)pentyl)-2,2-dimethylimidazolidin-4-one] | 12.9 (≈ 27.5 µM) | 7.5 (≈ 16 µM) | 4.6 (≈ 9.79 µM) | 4.9 ±0.6 | 1.5 ±0.5 | 
5 | COc1cc(NC(C)CCCN2C(=O)[C@@H](C)N(C(=O)CN)C2(C)C)c2ncccc2c1 (stereo partly shown) [Compound 5h] |  | 32.2 (≈ 75.3 µM) | 22.3 (≈ 52.2 µM) | 3.3 ±1.1 | 1.8 ±0.5 | Anti-P. carinii activity (activity scale) (P. carinii [1]; 24 h): Inactive; Cytotoxicity (A549 cells) IC50 at 72 h [5]: no toxicity
6 | COc1cc(NC(C)CCCN2C(=O)CN(C(=O)[C@@H](C)N)C2(C)C)c2ncccc2c1 (stereo partly shown) [Compound 5b] | 16.9 (≈ 39.5 µM) | 8 (≈ 18.7 µM) | 3.6 (≈ 8.42 µM) |  | 1.3 ±0.3 | 
7 | COc1cc(NC(C)CCCN)c2ncccc2c1 (stereo not shown) [Compound 1, primaquine, reference compound] |  |  |  | 3.5 ±1.2 | 0.2 ±0.2 | IC50 (P. carinii [1]; 24 h, read-out: Anti-P. carinii activity IC50): 4.7 µg/mL (≈ 18.1 µM); IC50 (P. carinii [1]; 48 h, read-out: Anti-P. carinii activity IC50): 2.2 µg/mL (≈ 8.48 µM); IC50 (P. carinii [1]; 72 h, read-out: Anti-P. carinii activity IC50): 0.9 µg/mL (≈ 3.47 µM)
8 | COc1cc(NC(C)CCCN2C(=O)CN(C(=O)[C@H](N)C(C)C)C2(C)C)c2ncccc2c1 (stereo partly shown) [Compound 5c] | 24.7 (≈ 54.2 µM) | 9.2 (≈ 20.2 µM) | 6.2 (≈ 13.6 µM) |  |  | 
9 | COc1cc(NC(C)CCCN2C(=O)CN(C(=O)CN)C2(C)C)c2ncccc2c1 (stereo not shown) [Compound 5a] | 18.1 (≈ 43.8 µM) | 15.5 (≈ 37.5 µM) | 11.6 (≈ 28.1 µM) |  |  | Cytotoxicity (A549 cells) IC50 at 72 h [5]: no toxicity
10 | COc1cc(NC(C)CCCN2C(=O)CN(C(=O)[C@H](N)CCSC)C2(C)C)c2ncccc2c1 (stereo partly shown) [Compound 5f] | 11.6 (≈ 23.8 µM) | 6.4 (≈ 13.1 µM) | 3.4 (≈ 6.97 µM) | 1.2 ±0.4 | 3.8 ±1.4 | 
11 | COc1cc(NC(C)CCCN2C(=O)CN(C(=O)[C@H](N)Cc3ccccc3)C2(C)C)c2ncccc2c1 (stereo partly shown) [Compound 5g] | 12.1 (≈ 24 µM) | 9.3 (≈ 18.5 µM) | 5.1 (≈ 10.1 µM) | 3.7 ±1.2 | 2.2 ±0.8 | 
12 | COc1cc(N(C(C)=O)C(C)CCCN2C(=O)CN(C(C)=O)C2(C)C)c2ncccc2c1 (stereo not shown) [Compound 7] |  |  |  |  |  | Activity against blood stage forms IC50 [6]: devoid of blood-schizontocidal activity; Anti-P. carinii activity (activity scale) (P. carinii [1]; 24 h): Inactive; Anti-P. carinii activity (activity scale) (P. carinii [1]; 48 h): Inactive; Anti-P. carinii activity (activity scale) (P. carinii [1]; 72 h): Inactive
13 | COc1cc(NC(C)CCCN2C(=O)CN(C(C)=O)C2(C)C)c2ncccc2c1 (stereo not shown) [Compound 6] |  | 40.5 (≈ 102 µM) | 14.6 (≈ 36.6 µM) |  |  | Activity against blood stage forms IC50 [6]: complete loss of activity; also recorded: devoid of blood-schizontocidal activity; Anti-P. carinii activity (activity scale) (P. carinii [1]; 24 h): Inactive
